The source made the active and inactive calls.
Tests used:
Type in all cases: functional
[1] = molecular target: cAMP-dependent protein kinase catalytic subunit alpha (Homo sapiens, UniProt P17612)
[2] = molecular target: Ribosomal protein S6 kinase beta-1 (Homo sapiens, UniProt P23443);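 note: measured as one member of a kinome-wide profiling panel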
[3] = molecular target: Dual specificity tyrosine-phosphorylation-regulated kinase 3 (Homo sapiens, UniProt O43781);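 note: measured as one member of a broad kinase panel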
[4] = molecular target: Rho-associated protein kinase 1 (Homo sapiens, UniProt Q13464);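 note: measured within a broad kinome-wide panel profiling many kinases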
[5] = molecular target: Calcium/calmodulin-dependent protein kinase type 1 (Homo sapiens, UniProt Q14012)
[6] = molecular target: Ephrin type-A receptor 2 (Homo sapiens, UniProt P29317);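 note: EPHA2 tested as one member of a kinome-wide kinase panel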
[7] = molecular target: STE20-like serine/threonine-protein kinase (Homo sapiens, UniProt Q9H2G2)
[8] = molecular target: Serine/threonine-protein kinase TAO1 (Homo sapiens, UniProt Q7L7X3)
[9] = molecular target: Tyrosine-protein kinase FRK (Homo sapiens, UniProt P42685);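 note: FRK tested as one member of a kinome panel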
[10] = molecular target: Dual specificity protein kinase CLK2 (Homo sapiens, UniProt P49760)
[11] = molecular target: Protein kinase C iota type (Homo sapiens, UniProt P41743);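 note: measured within a kinome-wide kinase panel, PRKCI as panel member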
[12] = molecular target: Fibroblast growth factor receptor 3 (Homo sapiens, UniProt P22607)
[13] = molecular target: Tyrosine-protein kinase receptor TYRO3 (Homo sapiens, UniProt Q06418);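 note: TYRO3 value obtained as one member of a kinome-wide profiling panel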
[14] = molecular target: Aurora kinase B (Homo sapiens, UniProt Q96GD4)
[15] = molecular target: Vascular endothelial growth factor receptor 2 (Homo sapiens, UniProt P35968)
[16] = molecular target: Casein kinase II subunit alpha (Homo sapiens, UniProt P68400)
[17] = molecular target: Megakaryocyte-associated tyrosine-protein kinase (Homo sapiens, UniProt P42679);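 note: affinity measured as one member of a kinase panel (Navigating the Kinome) against MATK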
[18] = molecular target: ALK tyrosine kinase receptor (Homo sapiens, UniProt Q9UM73);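 note: ALK tested as one member of a kinase panel screen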
[19] = molecular target: Serine/threonine-protein kinase PAK 1 (Homo sapiens, UniProt Q13153)
[20] = molecular target: cGMP-dependent protein kinase 1 (Homo sapiens, UniProt Q13976);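 note: value from a kinome panel screen with PRKG1 as the panel member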
[21] = molecular target: RAC-gamma serine/threonine-protein kinase (Homo sapiens, UniProt Q9Y243)
[22] = molecular target: Protein kinase C zeta type (Homo sapiens, UniProt Q05513);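 note: measured as one member of a broad kinase profiling panel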
[23] = molecular target: Tyrosine-protein kinase Srms (Homo sapiens, UniProt Q9H3Y6);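 note: SRMS measured as one member of a kinome-wide kinase profiling panel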
[24] = molecular target: Cyclin-dependent kinase 1 (Homo sapiens, UniProt P06493);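 note: Kinome-wide panel profiling, with the target listed as panel member CDC2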
[25] = molecular target: Calcium/calmodulin-dependent protein kinase type II subunit gamma (Homo sapiens, UniProt Q13555)
[26] = molecular target: Serine/threonine-protein kinase PAK 4 (Homo sapiens, UniProt O96013);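 note: value obtained within a kinome profiling panel in which PAK4 was one of the panel members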
[27] = molecular target: Serine/threonine-protein kinase Chk2 (Homo sapiens, UniProt O96017);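 note: CHEK2 entry within a kinome-wide screening panel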
[28] = molecular target: Fibroblast growth factor receptor 1 (Homo sapiens, UniProt P11362)
[29] = molecular target: 3-phosphoinositide-dependent protein kinase 1 (Homo sapiens, UniProt O15530);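 note: value comes from the Navigating the Kinome panel, PDPK1 member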
[30] = molecular target: Serine/threonine-protein kinase Nek4 (Homo sapiens, UniProt P51957)
[31] = molecular target: Testis-specific serine/threonine-protein kinase 1 (Homo sapiens, UniProt Q9BXA7)
[32] = molecular target: Mitogen-activated protein kinase 1 (Homo sapiens, UniProt P28482)
[33] = molecular target: Lymphokine-activated killer T-cell-originated protein kinase (Homo sapiens, UniProt Q96KB5);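 note: value comes from a kinase panel screen in which TOPK was one of the panel members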
[34] = molecular target: T1, Replicative DNA helicase DnaB (Mycobacterium tuberculosis, UniProt P9WMR3); experiment: DnaB intein splicing inhibitors, dose response, biochemical, cell-free fluorescence (AID 449749)
T1 sequence (P9WMR3 whole entry): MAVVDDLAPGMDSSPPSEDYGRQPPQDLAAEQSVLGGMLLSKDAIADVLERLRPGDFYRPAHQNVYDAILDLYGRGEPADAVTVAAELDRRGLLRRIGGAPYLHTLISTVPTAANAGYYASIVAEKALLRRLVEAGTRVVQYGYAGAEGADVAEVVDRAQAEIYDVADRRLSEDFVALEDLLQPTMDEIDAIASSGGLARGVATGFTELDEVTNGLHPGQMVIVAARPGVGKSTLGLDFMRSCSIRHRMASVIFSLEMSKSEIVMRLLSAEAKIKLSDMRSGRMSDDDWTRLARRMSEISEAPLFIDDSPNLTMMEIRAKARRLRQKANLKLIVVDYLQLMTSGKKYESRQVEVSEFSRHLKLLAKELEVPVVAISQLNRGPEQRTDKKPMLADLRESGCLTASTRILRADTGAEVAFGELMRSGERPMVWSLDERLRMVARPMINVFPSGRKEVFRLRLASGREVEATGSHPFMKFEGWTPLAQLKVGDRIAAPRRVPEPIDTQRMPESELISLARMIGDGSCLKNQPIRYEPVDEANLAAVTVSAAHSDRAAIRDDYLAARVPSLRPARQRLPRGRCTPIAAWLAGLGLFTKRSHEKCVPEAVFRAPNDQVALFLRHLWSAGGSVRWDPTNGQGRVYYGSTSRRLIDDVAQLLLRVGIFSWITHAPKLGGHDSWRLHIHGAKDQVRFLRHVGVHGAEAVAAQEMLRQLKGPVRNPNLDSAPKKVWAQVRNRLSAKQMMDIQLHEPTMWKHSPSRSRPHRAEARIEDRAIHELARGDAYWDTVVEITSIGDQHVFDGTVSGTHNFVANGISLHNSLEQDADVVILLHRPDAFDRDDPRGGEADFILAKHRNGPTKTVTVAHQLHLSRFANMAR

Sequence of Tyrosine-protein kinase receptor TYRO3 (Q06418 whole entry): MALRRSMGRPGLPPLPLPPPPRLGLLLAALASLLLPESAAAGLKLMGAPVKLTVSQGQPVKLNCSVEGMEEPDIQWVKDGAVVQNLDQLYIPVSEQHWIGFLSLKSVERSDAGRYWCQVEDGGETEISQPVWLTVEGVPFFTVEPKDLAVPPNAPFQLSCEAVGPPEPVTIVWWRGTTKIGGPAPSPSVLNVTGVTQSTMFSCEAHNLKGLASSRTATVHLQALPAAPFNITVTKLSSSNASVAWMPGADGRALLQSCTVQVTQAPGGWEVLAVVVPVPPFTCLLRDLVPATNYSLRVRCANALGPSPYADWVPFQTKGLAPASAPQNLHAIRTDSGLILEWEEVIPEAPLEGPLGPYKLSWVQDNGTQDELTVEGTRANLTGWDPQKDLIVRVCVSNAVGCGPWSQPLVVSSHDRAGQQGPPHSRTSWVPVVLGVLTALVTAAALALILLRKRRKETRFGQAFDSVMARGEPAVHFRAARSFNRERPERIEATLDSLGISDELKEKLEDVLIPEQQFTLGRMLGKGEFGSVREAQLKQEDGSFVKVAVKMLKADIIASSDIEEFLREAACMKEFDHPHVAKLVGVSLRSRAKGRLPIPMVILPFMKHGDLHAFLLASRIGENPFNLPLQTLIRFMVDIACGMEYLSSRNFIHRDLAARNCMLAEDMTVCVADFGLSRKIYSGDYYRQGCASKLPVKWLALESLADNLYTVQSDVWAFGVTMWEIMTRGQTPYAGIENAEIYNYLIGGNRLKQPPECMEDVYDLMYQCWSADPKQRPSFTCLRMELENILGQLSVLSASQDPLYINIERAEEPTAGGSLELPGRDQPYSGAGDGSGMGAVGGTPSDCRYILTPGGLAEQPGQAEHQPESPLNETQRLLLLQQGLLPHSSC
Sequence of ALK tyrosine kinase receptor (Q9UM73 whole entry): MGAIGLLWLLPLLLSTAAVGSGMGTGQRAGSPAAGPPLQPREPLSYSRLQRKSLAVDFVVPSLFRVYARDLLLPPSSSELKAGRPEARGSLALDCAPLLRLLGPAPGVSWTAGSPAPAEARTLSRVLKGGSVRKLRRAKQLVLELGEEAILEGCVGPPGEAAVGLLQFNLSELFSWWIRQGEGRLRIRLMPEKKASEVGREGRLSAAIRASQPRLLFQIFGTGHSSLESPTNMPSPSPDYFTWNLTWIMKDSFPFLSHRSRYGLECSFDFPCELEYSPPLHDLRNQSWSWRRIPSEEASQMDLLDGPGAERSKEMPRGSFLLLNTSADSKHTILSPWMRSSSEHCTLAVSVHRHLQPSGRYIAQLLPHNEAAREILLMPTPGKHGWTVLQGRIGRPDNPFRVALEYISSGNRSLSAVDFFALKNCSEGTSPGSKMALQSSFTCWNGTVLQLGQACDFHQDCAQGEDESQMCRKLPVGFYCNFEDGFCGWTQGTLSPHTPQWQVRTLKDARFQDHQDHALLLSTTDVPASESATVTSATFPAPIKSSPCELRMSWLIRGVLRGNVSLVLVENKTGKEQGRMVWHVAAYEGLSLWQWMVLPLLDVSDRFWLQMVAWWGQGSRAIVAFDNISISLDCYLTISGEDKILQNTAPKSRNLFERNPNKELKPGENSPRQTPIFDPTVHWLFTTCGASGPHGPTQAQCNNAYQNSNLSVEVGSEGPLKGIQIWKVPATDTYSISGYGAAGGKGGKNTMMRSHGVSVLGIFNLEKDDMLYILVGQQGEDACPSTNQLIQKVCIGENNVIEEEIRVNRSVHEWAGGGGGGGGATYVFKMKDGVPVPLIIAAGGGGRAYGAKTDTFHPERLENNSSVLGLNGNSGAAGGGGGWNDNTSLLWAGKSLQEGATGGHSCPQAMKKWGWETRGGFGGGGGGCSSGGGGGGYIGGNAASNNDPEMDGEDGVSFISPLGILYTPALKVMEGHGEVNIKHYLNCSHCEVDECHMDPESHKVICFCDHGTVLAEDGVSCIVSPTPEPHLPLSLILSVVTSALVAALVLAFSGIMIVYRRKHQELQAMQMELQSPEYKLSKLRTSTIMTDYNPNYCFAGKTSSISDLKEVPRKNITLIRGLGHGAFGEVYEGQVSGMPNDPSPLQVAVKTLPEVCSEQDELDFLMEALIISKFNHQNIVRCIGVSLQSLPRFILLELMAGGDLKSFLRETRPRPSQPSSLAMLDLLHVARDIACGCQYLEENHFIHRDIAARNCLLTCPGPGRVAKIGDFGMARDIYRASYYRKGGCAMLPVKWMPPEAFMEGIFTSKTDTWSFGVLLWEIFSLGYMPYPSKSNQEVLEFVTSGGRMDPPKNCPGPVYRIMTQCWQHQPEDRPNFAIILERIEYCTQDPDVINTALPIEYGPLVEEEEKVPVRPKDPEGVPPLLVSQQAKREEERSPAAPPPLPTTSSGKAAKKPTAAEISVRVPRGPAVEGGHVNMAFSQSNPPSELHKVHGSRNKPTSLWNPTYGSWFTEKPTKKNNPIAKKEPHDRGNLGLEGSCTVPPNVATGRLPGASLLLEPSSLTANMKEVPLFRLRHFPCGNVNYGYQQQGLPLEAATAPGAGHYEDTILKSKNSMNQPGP
Sequence of cGMP-dependent protein kinase 1 (Q13976 whole entry): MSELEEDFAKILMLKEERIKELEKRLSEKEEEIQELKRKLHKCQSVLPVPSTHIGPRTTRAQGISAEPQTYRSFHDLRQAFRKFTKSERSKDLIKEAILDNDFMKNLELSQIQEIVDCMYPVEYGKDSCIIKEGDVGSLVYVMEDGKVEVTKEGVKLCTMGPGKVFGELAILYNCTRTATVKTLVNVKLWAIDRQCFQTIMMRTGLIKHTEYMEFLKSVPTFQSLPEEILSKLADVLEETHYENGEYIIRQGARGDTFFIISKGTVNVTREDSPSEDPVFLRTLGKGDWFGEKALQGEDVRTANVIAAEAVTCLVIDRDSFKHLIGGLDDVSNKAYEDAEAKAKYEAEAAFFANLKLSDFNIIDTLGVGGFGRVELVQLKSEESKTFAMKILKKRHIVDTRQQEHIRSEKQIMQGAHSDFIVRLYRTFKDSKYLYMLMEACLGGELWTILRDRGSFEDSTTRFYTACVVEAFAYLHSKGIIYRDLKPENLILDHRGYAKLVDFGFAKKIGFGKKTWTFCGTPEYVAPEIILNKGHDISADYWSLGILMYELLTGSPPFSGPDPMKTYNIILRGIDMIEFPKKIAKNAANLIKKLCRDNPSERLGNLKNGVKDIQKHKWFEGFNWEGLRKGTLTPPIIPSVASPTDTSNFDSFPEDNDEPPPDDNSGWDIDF
Sequence of Serine/threonine-protein kinase PAK 1 (Q13153 whole entry): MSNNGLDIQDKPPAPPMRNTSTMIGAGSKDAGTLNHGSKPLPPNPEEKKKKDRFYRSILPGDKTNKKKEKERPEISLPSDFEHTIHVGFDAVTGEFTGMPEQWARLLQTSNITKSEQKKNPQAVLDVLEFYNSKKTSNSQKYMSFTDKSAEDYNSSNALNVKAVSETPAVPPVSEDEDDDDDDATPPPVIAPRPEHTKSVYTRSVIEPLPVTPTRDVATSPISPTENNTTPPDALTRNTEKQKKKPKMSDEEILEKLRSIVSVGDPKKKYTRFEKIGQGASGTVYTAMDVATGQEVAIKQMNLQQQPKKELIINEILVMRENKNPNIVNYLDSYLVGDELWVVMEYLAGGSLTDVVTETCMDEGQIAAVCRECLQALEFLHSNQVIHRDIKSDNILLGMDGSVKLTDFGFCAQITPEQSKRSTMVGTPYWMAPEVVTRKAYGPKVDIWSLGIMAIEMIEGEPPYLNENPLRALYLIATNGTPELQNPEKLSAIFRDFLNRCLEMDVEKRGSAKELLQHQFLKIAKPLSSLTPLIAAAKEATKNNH
Sequence of Lymphokine-activated killer T-cell-originated protein kinase (Q96KB5 whole entry): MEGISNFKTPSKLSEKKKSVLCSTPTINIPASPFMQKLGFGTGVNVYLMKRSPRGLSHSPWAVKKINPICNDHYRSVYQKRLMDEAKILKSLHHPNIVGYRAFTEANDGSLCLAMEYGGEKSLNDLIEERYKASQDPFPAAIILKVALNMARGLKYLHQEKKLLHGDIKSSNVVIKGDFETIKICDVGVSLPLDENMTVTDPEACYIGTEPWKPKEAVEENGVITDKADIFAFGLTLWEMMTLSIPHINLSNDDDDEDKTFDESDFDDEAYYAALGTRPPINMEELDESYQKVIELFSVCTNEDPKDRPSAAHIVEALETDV
Sequence of Serine/threonine-protein kinase Chk2 (O96017 whole entry): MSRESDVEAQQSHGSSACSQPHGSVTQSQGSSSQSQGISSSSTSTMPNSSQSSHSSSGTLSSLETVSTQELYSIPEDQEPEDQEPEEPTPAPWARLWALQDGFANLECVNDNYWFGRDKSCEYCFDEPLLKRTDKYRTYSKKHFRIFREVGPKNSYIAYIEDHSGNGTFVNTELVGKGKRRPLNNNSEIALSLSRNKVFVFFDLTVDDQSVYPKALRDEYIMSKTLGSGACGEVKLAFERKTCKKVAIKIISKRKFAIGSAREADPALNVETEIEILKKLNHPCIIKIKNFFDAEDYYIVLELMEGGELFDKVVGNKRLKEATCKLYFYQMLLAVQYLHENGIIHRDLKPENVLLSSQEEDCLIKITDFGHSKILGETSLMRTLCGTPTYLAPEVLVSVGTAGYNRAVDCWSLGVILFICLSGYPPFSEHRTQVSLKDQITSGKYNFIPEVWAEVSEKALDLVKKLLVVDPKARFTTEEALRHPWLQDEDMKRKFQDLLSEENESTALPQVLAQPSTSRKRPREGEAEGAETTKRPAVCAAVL
Sequence of Mitogen-activated protein kinase 1 (P28482 whole entry): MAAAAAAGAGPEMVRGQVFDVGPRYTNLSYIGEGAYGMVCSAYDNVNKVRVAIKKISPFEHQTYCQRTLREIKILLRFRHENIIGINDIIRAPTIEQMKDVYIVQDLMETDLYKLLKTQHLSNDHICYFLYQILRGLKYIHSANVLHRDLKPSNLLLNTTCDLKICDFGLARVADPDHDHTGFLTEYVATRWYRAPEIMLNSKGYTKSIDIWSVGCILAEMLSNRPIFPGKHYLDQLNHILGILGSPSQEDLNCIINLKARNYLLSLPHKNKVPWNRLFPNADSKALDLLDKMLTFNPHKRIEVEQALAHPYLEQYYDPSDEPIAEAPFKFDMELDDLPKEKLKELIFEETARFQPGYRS

Cn1cncc1C(OCc1c(-c2ccc(OC(F)(F)F)cc2)cc(C#N)c(=O)n1C)c1ccc(C#N)cc1 (centres undefined)
Ki [1]: > 7.94 µM (inactive) | Ki [2]: 1.58 µM (active) | Ki [3]: > 6.31 µM (inactive) | Ki [4]: > 10 µM (inactive) | Ki [5]: > 5.01 µM (inactive) | Ki [6]: > 3.16 µM (inactive) | Ki [7]: > 10 µM (inactive) | Ki [8]: 3.98 µM (active) | Ki [9]: > 2.51 µM (inactive) | Ki [10]: > 7.94 µM (inactive) | Ki [11]: > 5.01 µM (inactive) | Ki [12]: > 2 µM (inactive) | Ki [13]: > 2 µM (inactive) | Ki [14]: 158 nM (active) | Ki [15]: > 7.94 µM (inactive) | Ki [16]: > 6.31 µM (inactive) | Ki [17]: > 2 µM (inactive) | Ki [18]: > 6.31 µM (inactive) | Ki [19]: > 10 µM (inactive) | Ki [20]: > 2 µM (inactive) | Ki [21]: > 10 µM (inactive) | Ki [22]: > 7.94 µM (inactive) | Ki [23]: > 1.58 µM (inactive) | Ki [24]: > 7.94 µM (inactive) | Ki [25]: > 6.31 µM (inactive) | Ki [26]: > 5.01 µM (inactive) | Ki [27]: > 1.58 µM (inactive) | Ki [28]: > 5.01 µM (inactive) | Ki [29]: > 3.98 µM (inactive) | Ki [30]: > 6.31 µM (inactive) | Ki [31]: > 1.58 µM (inactive) | Ki [32]: > 7.94 µM (inactive) | Ki [33]: > 10 µM (inactive)

CCc1ccc(S(=O)(=O)/N=C2\C=C(NS(=O)(=O)c3ccccc3)C(=O)c3ccccc32)cc1
AC50 [34]: 2.55 µM (active)
